ChEMBL document CHEMBL3352455, “Small molecule disruptors of the glucokinase-glucokinase regulatory protein interaction: 4. Exploration of a novel binding pocket” (J Med Chem, 2014)

Key:
[1] = Oral bioavailability in Sprague-Dawley rat at 10 mg/kg; assay type: ADME, organism-based; conditions: in vivo
Cytochrome P450 3A4 = Cytochrome P450 3A4 (Homo sapiens, UniProt P08684); experiment: Inhibition of CYP3A4 (unknown origin); assay type: ADME
[2] = Intrinsic clearance in human liver microsomes at 1 uM after 30 mins in presence of NADPH; assay type: ADME; conditions: read-out: CLH
[3] = Volume of distribution at steady state in Sprague-Dawley rat at 2 mg/kg, iv; assay type: ADME, organism-based; design: dose 2 mg/kg, route intravenous; conditions: in vivo, read-out: Vdss
[4] = Fraction unbound in Sprague-Dawley rat plasma; assay type: ADME, cell-free
[5] = AUC in Sprague-Dawley rat at 10 mg/kg, po; assay type: ADME, organism-based; design: dose 10 mg/kg, route oral; conditions: plasma
Cytochrome P450 2D6 = Cytochrome P450 2D6 (Homo sapiens, UniProt P10635); experiment: Inhibition of CYP2D6 (unknown origin); assay type: ADME
Sequence of Cytochrome P450 2D6 (P10635 whole entry): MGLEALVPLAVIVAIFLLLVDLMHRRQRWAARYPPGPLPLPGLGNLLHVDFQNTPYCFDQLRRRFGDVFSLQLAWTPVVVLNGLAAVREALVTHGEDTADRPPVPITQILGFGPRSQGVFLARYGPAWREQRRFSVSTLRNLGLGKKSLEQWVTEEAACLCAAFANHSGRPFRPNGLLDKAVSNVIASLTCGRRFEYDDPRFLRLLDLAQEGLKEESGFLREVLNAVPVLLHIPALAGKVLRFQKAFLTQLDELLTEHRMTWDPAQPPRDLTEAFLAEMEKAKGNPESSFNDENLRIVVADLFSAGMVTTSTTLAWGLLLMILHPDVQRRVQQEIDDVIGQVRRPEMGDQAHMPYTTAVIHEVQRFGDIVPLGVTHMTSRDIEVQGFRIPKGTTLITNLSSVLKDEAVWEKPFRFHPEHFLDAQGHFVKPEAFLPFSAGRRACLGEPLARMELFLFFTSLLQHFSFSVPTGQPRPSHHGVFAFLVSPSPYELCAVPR

[6] = Intrinsic clearance in rat liver microsomes at 1 uM after 30 mins in presence of NADPH; assay type: ADME; conditions: read-out: CLH
[7] = Clearance in Sprague-Dawley rat at 2 mg/kg, iv; assay type: ADME, organism-based; design: dose 2 mg/kg, route intravenous; conditions: in vivo
Hexokinase-4 = target: T1, Hexokinase-4 (Homo sapiens, UniProt P35557); experiment: Inhibition of fluorescein-labeled human GK interaction with biotin-labeled human GKRP compound incubated for 20 mins prior to addition of fluorescein-labeled GK measured after 2 to 4 hrs by AlphaScreen assay
T1 sequence (P35557 whole entry): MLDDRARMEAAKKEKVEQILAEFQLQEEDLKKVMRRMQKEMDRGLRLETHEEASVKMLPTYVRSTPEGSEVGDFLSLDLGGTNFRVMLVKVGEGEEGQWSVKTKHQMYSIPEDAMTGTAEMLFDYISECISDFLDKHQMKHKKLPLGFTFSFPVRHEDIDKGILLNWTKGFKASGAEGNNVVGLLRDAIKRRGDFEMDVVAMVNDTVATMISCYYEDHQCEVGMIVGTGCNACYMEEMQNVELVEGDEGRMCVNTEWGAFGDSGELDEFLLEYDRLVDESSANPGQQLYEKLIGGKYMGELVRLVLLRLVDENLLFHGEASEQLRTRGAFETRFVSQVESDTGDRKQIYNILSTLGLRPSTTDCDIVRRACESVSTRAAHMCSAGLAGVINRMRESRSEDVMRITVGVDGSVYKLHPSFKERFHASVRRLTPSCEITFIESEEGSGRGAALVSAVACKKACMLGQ

[8] = Mean residence time in Sprague-Dawley rat at 2 mg/kg, iv; assay type: ADME, organism-based; design: dose 2 mg/kg, route intravenous; conditions: in vivo
Mus musculus = experiment: Antidiabetic activity in insulin-resistant db/db mouse assessed as reduction of fed blood glucose level at 10 to 100 mg/kg, po measured at 6 hrs relative to vehicle-treated control; assay type: functional; design: scale not given: the % may be the effect or the level left; conditions: dose mg/kg 10-100

Sequence of Cytochrome P450 3A4 (P08684 whole entry): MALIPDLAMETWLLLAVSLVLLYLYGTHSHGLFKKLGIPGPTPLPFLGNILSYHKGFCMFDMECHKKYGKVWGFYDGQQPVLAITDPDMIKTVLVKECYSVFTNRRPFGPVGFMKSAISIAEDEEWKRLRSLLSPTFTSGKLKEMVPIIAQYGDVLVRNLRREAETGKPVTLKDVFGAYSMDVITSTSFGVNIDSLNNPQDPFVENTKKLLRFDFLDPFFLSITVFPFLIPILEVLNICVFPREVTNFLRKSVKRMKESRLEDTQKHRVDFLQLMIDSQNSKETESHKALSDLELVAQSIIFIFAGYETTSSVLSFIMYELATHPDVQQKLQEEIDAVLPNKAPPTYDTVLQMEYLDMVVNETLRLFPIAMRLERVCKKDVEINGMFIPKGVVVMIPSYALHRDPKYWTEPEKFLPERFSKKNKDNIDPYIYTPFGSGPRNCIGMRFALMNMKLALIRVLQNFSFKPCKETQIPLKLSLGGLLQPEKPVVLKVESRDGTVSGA

| bioavailability [1] | IC50 (Cytochrome P450 3A4) | microsomal CLint at 1 µM [2] | Vd [3] | fraction unbound [4] | AUC [5] | IC50 (Cytochrome P450 2D6) | microsomal CLint at 1 µM [6] | clearance [7] | IC50 (Hexokinase-4) | MRT [8] | SMILES | Activity (Mus musculus) |
| --- | --- | --- | --- | --- | --- | --- | --- | --- | --- | --- | --- | --- |
| 30% | 27 µM | 19 µL/min/mg | 2.57 L/kg | 0.011 | 2.8 µM·h | 18 µM | 44 µL/min/mg | 33.3 mL/min/kg | 0.001 µM | 1.34 h | Cn1cc(-c2cc(C(O)(C(F)(F)F)C(F)(F)F)cnc2N2CCN(S(=O)(=O)c3ccc(N)nc3)CC2)cn1 | – |
| 43% | 27 µM | 17 µL/min/mg | 3.36 L/kg | 0.021 | 4.74 µM·h | 27 µM | 20 µL/min/mg | 25 mL/min/kg | 0.005 µM | 2.18 h | Nc1ccc(S(=O)(=O)N2CCN(c3ncc(C(O)(C(F)(F)F)C(F)(F)F)cc3-c3cccnc3)CC2)cn1 | 25% |
